Where “and” joins values, the source holds several entries; their conditions need not be identical. Equal entries are not always repeated.
Tested on: K98450-129-R-PDC complex spheroid growth, percent test/control
Assay: Anticancer human tumor K98450-129-R-PDC patient-derived colon adenocarcinoma cell line growth inhibition [RAS]
Settings: for viability, T/C: stronger effect = lower value
Text: RAS pathway inhibitors in Combinations in Complex Spheroids
A high-throughput screen of multi-cell type tumor spheroids was designed to identify active combinations of RAS pathway inhibitors and targeted small molecules. Complex spheroids include a stromal component modeled by human endothelial cells (HUVEC) and fibroblasts modeled by human mesenchymal stem cells (MSCs). The concentration ranges selected for each drug and investigational agent were based upon clinically achievable concentrations if the clinical Cmax of the agent was known.
Compounds. The drugs and investigational agents: abemaciclib (NSC768073), cobimetinib (NSC768068), divarasib (GDC6063, NSC841802), docetaxel (NSC628503), GDC-1971 (RLY-1971, NSC841576), gemcitabine (NSC613327), inavolisib (NSC800729), ipatasertib (NSC767898), KB-0742 (NSC834161), MRTX-1133 (NSC836407), osimertinib (NSC779217), RMC-4630 (NSC839698), RMC-6236 (NSC851965), RMC-6291 (NSC852671), Ro-3306 (NSC812927), sapanisertib (NSC764658), SN-38 (NSC673596), staurosporine (NSC755774), SY5609 (NSC837396), and tovorafenib (DAY101, NSC766906), were obtained from the National Cancer Institute (NCI) Developmental Therapeutics Program Chemical Repository. The FDA-approved anticancer drug set is available from the NCI Developmental Therapeutics Program. […] The stock solutions were prepared in dimethyl sulfoxide (DMSO, Sigma-Aldrich, St. Louis, MO, cat. D2650) at 800-fold the tested concentration and stored at -70 degrees C prior to their use. All drugs and investigational agents were tested over a range starting from a high concentration at or near the clinical Cmax and decreasing in half-log increments. If the clinical Cmax for an agent had not been determined, the highest concentration tested was 10 microM.
Cell Culture. All cells were maintained in an incubator at 37 degrees C and 5% CO2 with 95% humidity. The PDC lines were cultured according to standard operating procedures established by the NCI PDMR. All PDCs were thawed and cultured in Matrigel-coated flasks prepared with a working solution of 1X Ham's F-12 nutrient mix, without supplementation (Invitrogen, Waltham, MA, cat. 11765054), 100 U/mL penicillin-streptomycin (Invitrogen, cat. 15140122), and 2.5% Matrigel (Corning Inc., Corning, NY, cat. 354248) for the first three passages. The 362531-283-R-J2-PDC and 782815-120-R-J1-PDC lines were cultured in 6C/Colon 1B media, which includes advanced DMEM/F-12 (Thermo Fisher Scientific, cat. 12634028), 10 mM HEPES (Thermo Fisher Scientific, cat. 15630080), 1X GlutaMAX supplement (Thermo Fisher Scientific, cat. 35050061), 0.1 mg/mL primocin (InvivoGen, San Diego, CA, cat. ant-pm-2), 10% defined fetal bovine serum, heat inactivated (HyClone Laboratories Inc., Logan, UT, cat. SH30070.03HI), 50% L-WRN conditioned media (ATCC, cat. CRL-3276), 1.25 mM N-Acetyl-L-cysteine (Sigma-Aldrich, cat. A9165), 10 mM nicotinamide (Sigma-Aldrich, cat. N0636), 1X B-27 supplement (Thermo Fisher Scientific, cat. 17504044), 1X N-2 supplement (Thermo Fisher Scientific, cat. 17502048), 50 ng/mL human EGF (Thermo Fisher Scientific, cat. PHG0311), and 10 microM Y-27632 dihydrochloride (Tocris Bioscience, cat. 1254). The K12877-001-R-J1-PDC line was cultured in 6I media, which includes all 6C/Colon 1B media plus 10 ng/mL human FGF-10 (PeproTech, cat. 100-26), 1 ng/mL human FGF-2 (PeproTech, cat. 100-18B), 1 µM prostaglandin E2 (Tocris Bioscience, cat. 2296), […] hydrocortisone (Sigma-Aldrich, cat. H4001), and […] bovine insulin (Sigma-Aldrich, cat. I6634). The K86415-001-R-J1-PDC line was cultured in 6D media, which includes all 6C/Colon 1B media components minus the L-WRN conditioned media. The 485176-168-R4-J1-PDC was cultured in PANC media, which includes all 6C/Colon 1B media plus 100 ng/mL human FGF-10 (PeproTech, cat. 100-26), 500 nM SB-431542 (Selleckchem, cat. S1067), and 10 nM gastrin (Tocris Bioscience, cat. 3006). […]

[1] = curve of first compound, second compound 0.0316 µM
[2] = curve of first compound, second compound 0.1 µM
[3] = curve of first compound, second compound 0.316 µM
[4] = curve of first compound, second compound 1 µM
[5] = curve of first compound, second compound 3.16 µM
[6] = curve of first compound, second compound 10 µM
[7] = second compound 0.0316 µM, first compound 0.0316 µM
[8] = second compound 0.0316 µM, first compound 0.1 µM
[9] = second compound 0.0316 µM, first compound 0.316 µM
[10] = second compound 0.0316 µM, first compound 1 µM
[11] = second compound 0.1 µM, first compound 0.0316 µM
[12] = second compound 0.1 µM, first compound 0.1 µM
[13] = second compound 0.1 µM, first compound 0.316 µM
[14] = second compound 0.1 µM, first compound 1 µM
[15] = second compound 0.316 µM, first compound 0.0316 µM
[16] = second compound 0.316 µM, first compound 0.1 µM
[17] = second compound 0.316 µM, first compound 0.316 µM
[18] = second compound 0.316 µM, first compound 1 µM
[19] = second compound 1 µM, first compound 0.0316 µM
[20] = second compound 1 µM, first compound 0.1 µM
[21] = second compound 1 µM, first compound 0.316 µM
[22] = second compound 1 µM, first compound 1 µM
[23] = second compound 3.16 µM, first compound 0.0316 µM
[24] = second compound 3.16 µM, first compound 0.1 µM
[25] = second compound 3.16 µM, first compound 0.316 µM
[26] = second compound 3.16 µM, first compound 1 µM
[27] = second compound 10 µM, first compound 0.0316 µM
[28] = second compound 10 µM, first compound 0.1 µM
[29] = second compound 10 µM, first compound 0.316 µM
[30] = second compound 10 µM, first compound 1 µM
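Also: spheroids exposed to agents for seven days before the viability readout.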
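For viability, T/C in this document: luminescence used as a proxy for viable cell amount.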

`O=C(c1ccc(F)c(F)c1Nc1ccc(I)cc1F)N1CC(O)([C@@H]2CCCCN2)C1` + C#Cc1c(F)ccc2cc(O)cc(-c3ncc4c(N5CC6CCC(C5)N6)nc(OCC56CCCN5CC(F)C6)nc4c3F)c12 was tested, and the IC50 [1] was 187 nM, the IC50 [2] was 185 nM and the IC50 [3] was 170 nM. It also gave an IC50 [4] of 171 nM, an IC50 [5] of 159 nM and an IC50 [6] of 125 nM. The viability, T/C (second compound 0.0316 µM, first compound 0.00316 µM) was 108%, the viability, T/C (second compound 0.0316 µM, first compound 0.01 µM) was 105% and the viability, T/C [7] was 90.7%. It also gave a viability, T/C [8] of 87.1%, a viability, T/C [9] of 19.3% and a viability, T/C [10] of 3.6%. For the same compound, the viability, T/C (second compound 0.1 µM, first compound 0.00316 µM) was 113%, the viability, T/C (second compound 0.1 µM, first compound 0.01 µM) was 100% and the viability, T/C [11] was 107%. The viability, T/C [12] was 84.3%, the viability, T/C [13] was 20.2% and the viability, T/C [14] was 4.03%. The viability, T/C (second compound 0.316 µM, first compound 0.00316 µM) was 109%, the viability, T/C (second compound 0.316 µM, first compound 0.01 µM) was 106% and the viability, T/C [15] was 95.6%. It also gave a viability, T/C [16] of 77.7%, a viability, T/C [17] of 18.3% and a viability, T/C [18] of 4.22%. It also gave a viability, T/C (second compound 1 µM, first compound 0.00316 µM) of 105%, a viability, T/C (second compound 1 µM, first compound 0.01 µM) of 99.8% and a viability, T/C [19] of 93.2%. The viability, T/C [20] was 77.3%, the viability, T/C [21] was 19.3% and the viability, T/C [22] was 3.49%. It also gave a viability, T/C (second compound 3.16 µM, first compound 0.00316 µM) of 97%, a viability, T/C (second compound 3.16 µM, first compound 0.01 µM) of 89.7% and a viability, T/C [23] of 91.3%. For the same compound, the viability, T/C [24] was 73.1%, the viability, T/C [25] was 15.6% and the viability, T/C [26] was 4.86%. It also gave a viability, T/C (second compound 10 µM, first compound 0.00316 µM) of 86%, a viability, T/C (second compound 10 µM, first compound 0.01 µM) of 82.1% and a viability, T/C [27] of 70.5%. The viability, T/C [28] was 60.7%, the viability, T/C [29] was 12.1% and the viability, T/C [30] was 3.34%.

`Cc1nc(N2CCC3(CC2)COC(C)C3N)c(CO)nc1Sc1ccnc(N)c1Cl` (stereo unspecified) + C#Cc1c(F)ccc2cc(O)cc(-c3ncc4c(N5CC6CCC(C5)N6)nc(OCC56CCCN5CC(F)C6)nc4c3F)c12 was tested, and the IC50 [1] was 3010 nM, the IC50 [2] was 3130 nM and the IC50 [3] was 2240 nM. For the same compound, the IC50 [4] was 1720 nM, the IC50 [5] was 1070 nM and the IC50 [6] was 513 nM. The viability, T/C [7] was 104%, the viability, T/C [8] was 93.3% and the viability, T/C [9] was 88.8%. It also gave a viability, T/C [10] of 75.8%, a viability, T/C (second compound 0.0316 µM, first compound 3.16 µM) of 46.9% and a viability, T/C (second compound 0.0316 µM, first compound 10 µM) of 25%. For the same compound, the viability, T/C [11] was 112%, the viability, T/C [12] was 93.5% and the viability, T/C [13] was 83.6%. The viability, T/C [14] was 80.8%, the viability, T/C (second compound 0.1 µM, first compound 3.16 µM) was 45.3% and the viability, T/C (second compound 0.1 µM, first compound 10 µM) was 21.5%. The viability, T/C [15] was 101%, the viability, T/C [16] was 97.5% and the viability, T/C [17] was 86.1%. The viability, T/C [18] was 66.6%, the viability, T/C (second compound 0.316 µM, first compound 3.16 µM) was 43.1% and the viability, T/C (second compound 0.316 µM, first compound 10 µM) was 19.8%. It also gave a viability, T/C [19] of 97%, a viability, T/C [20] of 98.9% and a viability, T/C [21] of 84%. It also gave a viability, T/C [22] of 64.3%, a viability, T/C (second compound 1 µM, first compound 3.16 µM) of 34.3% and a viability, T/C (second compound 1 µM, first compound 10 µM) of 12.9%. The viability, T/C [23] was 91.2%, the viability, T/C [24] was 82% and the viability, T/C [25] was 79.8%. The viability, T/C [26] was 52.7%, the viability, T/C (second compound 3.16 µM, first compound 3.16 µM) was 17.1% and the viability, T/C (second compound 3.16 µM, first compound 10 µM) was 10.5%. For the same compound, the viability, T/C [27] was 83.4%, the viability, T/C [28] was 82.2% and the viability, T/C [29] was 62.8%. It also gave a viability, T/C [30] of 31.7%, a viability, T/C (second compound 10 µM, first compound 3.16 µM) of 11.4% and a viability, T/C (second compound 10 µM, first compound 10 µM) of 7.51%.

With `CC1(O)CCCC1n1c(=O)c(C(F)F)cc2cnc(NC3CCN(S(C)(=O)=O)CC3)nc21` (stereo unspecified) the viability, T/C (compound 0.0316 µM) was 102% (2×) and 99.8% and 90.2%, the viability, T/C (compound 0.1 µM) was 95.5% [middle of 4 runs] and the viability, T/C (compound 0.316 µM) was 91.1% [middle of 4 runs]. For the same compound, the viability, T/C (compound 1 µM) was 79% [middle of 4 runs], the viability, T/C (compound 3.16 µM) was 79% [middle of 4 runs] and the viability, T/C (compound 10 µM) was 73.3% [middle of 4 runs]. The IC50 (curve of compound) was > 10000 nM.
